Activity calls are given as the source filed them. The calls are words filed in the database; no cut-off is given here.
Key:
[1] = species on record: Oryctolagus cuniculus; assay: Vasorelaxant activity against PGF2-alpha-induced contraction in endothelium-intact rabbit aortic rings in presence of ketanserin tartrate; assay type: functional, tissue-based; details: Aorta
[2] = species on record: Oryctolagus cuniculus; assay: Vasorelaxant activity against PGF2-alpha-induced contraction in endothelium-intact rabbit aortic rings in presence of prazosin; assay type: functional, tissue-based; details: Aorta
[3] = tested on: Aorta; assay: Contractile activity in endothelium-intact rabbit aortic rings in presence of ketanserin tartrate; assay type: functional, tissue-based; details: Oryctolagus cuniculus
[4] = species on record: Oryctolagus cuniculus; assay: Vasorelaxant activity against PGF2-alpha-induced contraction in endothelium-intact rabbit aortic rings in presence of propranolol hydrochloride; assay type: functional, tissue-based; details: Aorta
[5] = species on record: Oryctolagus cuniculus; assay: Vasorelaxant activity against PGF2-alpha-induced contraction in endothelium-intact rabbit aortic rings in presence of atropine sulfate; assay type: functional, tissue-based; details: Aorta
[6] = Contractile activity in rabbit mesenteric arteries relative to control; assay type: functional; details: Oryctolagus cuniculus, Mesenteric artery
[7] = (§1) Contractile activity in rabbit mesenteric artery; assay type: functional, Oryctolagus cuniculus
[8] = species on record: Oryctolagus cuniculus; assay: as §1; assay type: functional
[9] = Contractile activity in rabbit celiac arteries relative to control; assay type: functional; details: Oryctolagus cuniculus, Celiac artery
[10] = species on record: Oryctolagus cuniculus; assay: Vasorelaxant activity against PGF2-alpha-induced contraction in endothelium-intact rabbit aortic rings in presence of indomethacin; assay type: functional, tissue-based; details: Aorta
[11] = species on record: Oryctolagus cuniculus; assay: Vasorelaxant activity against PGF2-alpha-induced contraction in endothelium-intact rabbit aortic rings up to 40 nmol; assay type: functional, tissue-based; details: Aorta
[12] = (§2) Contractile activity in rabbit celiac artery; assay type: functional, Oryctolagus cuniculus
[13] = species on record: Oryctolagus cuniculus; assay: as §2; assay type: functional
[14] = tested on: Aorta; assay: Contractile activity in endothelium-intact rabbit aortic rings at >40 nmol to 400 nmol; assay type: functional, tissue-based; details: Oryctolagus cuniculus
[15] = species on record: Oryctolagus cuniculus; assay: Vasorelaxant activity against PGF2-alpha-induced contraction in endothelium-intact rabbit aortic rings in presence of phentolamine; assay type: functional, tissue-based; details: Aorta
[16] = species on record: Oryctolagus cuniculus; assay: Vasorelaxant activity against PGF2-alpha-induced contraction in endothelium-denuded rabbit aortic rings at 0.04 to 400 nmol; assay type: functional, tissue-based; details: Aorta

| SMILES | Activity [1] | Activity [2] | Activity [3] | Activity [4] | Activity [5] | Emax [6] [%] | ED50 [7] [nmol] | Activity [8] | Emax [9] [%] | Activity [10] | Activity [11] | ED50 [12] [nmol] | Activity [13] | Activity [14] | Activity [15] | Activity [16] |
| --- | --- | --- | --- | --- | --- | --- | --- | --- | --- | --- | --- | --- | --- | --- | --- | --- |
| NC1CCCCNCCc2c1[nH]c1ccccc21 (stereo not given) [NAZLININ] | Active | Active | inactive | Active | Active | 83 | 70 | Dose-dependent effect | 71 | Active | Active | 115 | Dose-dependent effect | Active | Active | inactive |
| NCCc1c[nH]c2ccc(O)cc12 [SEROTONIN] |  |  |  |  |  | 108 | 0.126 | Dose-dependent effect | 110 |  | Active | 0.156 | Dose-dependent effect | Active |  | inactive |

From ChEMBL document CHEMBL1158966, “Chemical characterization and pharmacological activity of nazlinin, a novel indole alkaloid from Nitraria schoberi” (1991)
